Assay results taken from ChEMBL document CHEMBL1921721, “Benzenepolycarboxylic acids with potential anti-hemorrhagic properties and structure-activity relationships” (Bioorg Med Chem, 2011).

What was measured:
Mus musculus [1] = experiment: Antihemorrhagic activity in ddY mouse assessed as inhibition of Protobothrops flavoviridis venom-induced hemorrhagic lesion formation compound incubated with venom for 10 mins and administered subcutaneously measured after 24 hrs; assay type: functional, organism-based
[2] = Dissociation constant, pKa of the compound; assay type: physicochemical
Mus musculus [3] = experiment: Ratio of caffeic acid IC50 to compound IC50 for antihemorrhagic activity in ddY mouse assessed as inhibition of Protobothrops flavoviridis venom-induced hemorrhagic lesion formation compound incubated with venom for 10 mins and administered subcutaneously measured after 24 hrs; assay type: functional
Mus musculus [4] = experiment: Ratio of benzoic acid IC50 to compound IC50 for antihemorrhagic activity in ddY mouse assessed as inhibition of Protobothrops flavoviridis venom-induced hemorrhagic lesion formation compound incubated with venom for 10 mins and administered subcutaneously measured after 24 hrs; assay type: functional

## O=C(O)c1ccccc1[N+](=O)[O-]
Mus musculus [1]
  IC50: 260 nM

## O=C(O)c1ccccc1Cl
Mus musculus [1]
  IC50: 250 nM
[2]
  pKa: 2.97

## O=C(O)/C=C/C=C/C(=O)O
Mus musculus [1]
  IC50: 110 nM

## O=C(O)c1ccc(C(=O)O)c(C(=O)O)c1
Mus musculus [1]
  IC50: 62 nM
[2]
  pKa: 2.84

## O=C(O)c1cc(C(=O)O)cc(C(=O)O)c1
Mus musculus [1]
  IC50: 67 nM
[2]
  pKa: 2.98

## O=C(O)c1cccc(O)c1 [3-HYDROXYBENZOIC ACID]
Mus musculus [1]
  IC50: 200 nM
[2]
  pKa: 4.08

## Cc1ccc(C(=O)O)cc1 [4-METHYLBENZOIC ACID]
Mus musculus [1]
  IC50: 220 nM
[2]
  pKa: 4.37

## O=C(O)c1ccc([N+](=O)[O-])cc1 [4-NITROBENZOIC ACID]
Mus musculus [1]
  IC50: 240 nM
[2]
  pKa: 3.42

## O=C(O)c1cc(C(=O)O)c(C(=O)O)c(C(=O)O)c1C(=O)O [BENZENEPENTACARBOXYLIC ACID]
Mus musculus [1]
  IC50: 43 nM
[2]
  pKa: 1.93

## O=C(O)c1ccccc1 [BENZOIC ACID]
Mus musculus [1]
  IC50: 200 nM

## O=C(O)/C=C/c1ccc(O)c(O)c1 [CAFFEIC ACID]
[2]
  pKa: 4.58

## O=C(O)c1cccc(C(=O)O)c1 [ISOPHTHALIC ACID]
Mus musculus [1]
  IC50: 100 nM
Mus musculus [3]
  Ratio IC50: 2
Mus musculus [4]
  Ratio IC50: 2

## O=C(O)c1c(C(=O)O)c(C(=O)O)c(C(=O)O)c(C(=O)O)c1C(=O)O [MELLITIC ACID]
Mus musculus [1]
  IC50: 43 nM
[2]
  pKa: 1.15

## O=C(O)c1ccc(O)cc1 [PARABEN]
Mus musculus [1]
  IC50: 200 nM
[2]
  pKa: 4.57

## O=C(O)c1ccccc1C(=O)O [PHTHALIC ACID]
Mus musculus [1]
  IC50: 100 nM
Mus musculus [3]
  Ratio IC50: 2
Mus musculus [4]
  Ratio IC50: 2

## O=C(O)c1cc(C(=O)O)c(C(=O)O)cc1C(=O)O [PYROMELLITIC ACID]
Mus musculus [1]
  IC50: 35 nM
[2]
  pKa: 1.87

## O=C(O)c1ccccc1O [SALICYLIC ACID]
Mus musculus [1]
  IC50: 200 nM

## O=C(O)c1ccc(C(=O)O)cc1 [TEREPHTHALIC ACID]
Mus musculus [1]
  IC50: 90 nM
Mus musculus [3]
  Ratio IC50: 2
Mus musculus [4]
  Ratio IC50: 2
